Results from patent US11591342B2, “Heterocyclic compound, application thereof and pharmaceutical composition comprising same” (SUZHOU SINOVENT PHARMACEUTICALS CO., LTD., priority 2018, dated 2023).

How the values were obtained:
Autotaxin (ATX) = Autotaxin (ATX) (Homo sapiens (Human), UniProt Q13822); test: ATX bioactivity assay (Amplex Red / choline oxidase / HRP fluorescence, LPC 16:0 substrate); format: biochemical; conditions: 30 min room temperature
Protocol: Effect Example 1 Bioactivity Assay
Preparation and Treatment
Stock Solution Preparation
A 10 mM DMSO stock solution was formulated for each compound. A 30 mM DMSO stock solution was formulated for positive control HA130.
The DMSO stock solutions were stored at room temperature in a desiccator for a short period of time or at −20° C. for a long period of time.
All compounds were serially 3-fold diluted in DMSO from 10 μM to the 10th concentration.
A 1000× positive control (10 mM, HA130) and a 1000× negative control (100% DMSO) were prepared.
The plates were shaken for 5 min.
Preparation of 1× Reaction Buffer:
5× reaction buffer and cold water were mixed well in a volume ratio of 1:4.
Preparation of 20 U/mL Choline Oxidase Stock Solution:
1 tube of choline oxide in a kit was dissolved in 1× reaction buffer. The aliquots were frozen at −20° C.
Preparation of 200 U/mL Horseradish Peroxidase (HRP) Stock Solution:
1 tube of HRP in a kit was dissolved in 1 mL of 1× reaction buffer. The aliquots were frozen at −20° C.
Preparation of 20 mM Amplex® Red Reagent (for Detection) Stock Solution
Amplex Red reagent and DMSO were equilibrated at room temperature. 1 tube of Amplex Red reagent in a kit was dissolved in 200 μL of DMSO.
a) 2×ATX ([…]), 2×HRP ([…]), 2× choline oxidase (0.2 U/mL) were added to 1× reaction buffer.
b) 20 μL of the reaction mixture was added to the plate (PE, 6007270) (refer to step a).
c) 40 nL of diluent was added to the plate using Echo (refer to “Preparation”).
d) 2×LPC (16:0) (60 mM) and 2× Amplex® Red ([…]) were prepared using 1× reaction buffer.
e) 20 μL of the mixture was added to the plate (refer to step d).
f) The plate was shaken for 30 s and allowed to stand at room temperature for 30 min.
g) The plate was examined using Envision, and the procedure was as follows: Excitation at 530 nm; and Emission at 590 nm.
Formula for Calculating % Inhibition (Percent Inhibition Rate) as Follows:
FLU: Fluorescence (fluorescence reading)
FLUpositive: Average fluorescence value in positive control wells (10 μM HA130) in the plate.
FLUvehicle: Average fluorescence value in negative control wells (0.1% DMSO) in the plate.
Calculation of IC50 and Dose-Response Curve:
IC50 of the compounds was calculated via a non-linear regression line (dose-variable slope) fitted using % inhibition and log of compound concentration. The software used was Graphpad 5.0. Y=Bottom+(Top−Bottom)/(1+10^((Log IC50−X)×Hill Slope))
X: log of inhibitor concentration

CYP3A4 = CYP3A4 (Homo sapiens (Human), UniProt P08684); test: Time-dependent inhibition of CYP3A4 (TDI assay, human liver microsomes); format: in vitro ADME; conditions: for CYP3A4 TDI % @ 10 μM: human liver microsomes, Midazolam substrate, 30 min with NADPH vs 0 min; for time-dependent inhibition on CYP3A4 (conclusion): conclusion drawn from Table 3, 10 μM
CYP3A4, sequence (P08684 whole entry): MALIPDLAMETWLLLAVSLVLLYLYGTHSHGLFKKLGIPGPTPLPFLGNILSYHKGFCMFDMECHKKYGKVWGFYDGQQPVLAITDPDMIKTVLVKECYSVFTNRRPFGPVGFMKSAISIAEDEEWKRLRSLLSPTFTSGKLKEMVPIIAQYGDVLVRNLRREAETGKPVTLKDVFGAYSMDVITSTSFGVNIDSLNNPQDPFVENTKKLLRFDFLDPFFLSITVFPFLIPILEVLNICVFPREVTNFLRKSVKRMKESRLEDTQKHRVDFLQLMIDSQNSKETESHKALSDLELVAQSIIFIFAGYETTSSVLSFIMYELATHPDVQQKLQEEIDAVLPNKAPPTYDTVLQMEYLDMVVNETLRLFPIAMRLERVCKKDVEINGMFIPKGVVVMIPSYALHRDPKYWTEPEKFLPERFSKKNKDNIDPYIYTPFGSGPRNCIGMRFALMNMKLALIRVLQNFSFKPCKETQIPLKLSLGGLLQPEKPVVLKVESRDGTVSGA
Protocol: Effect Example 3. Time-Dependent Inhibition of CYP3A4
1. Preheating potassium phosphate buffer (K-buffer), pH 7.4: 100 mM potassium phosphate buffer (K-buffer) was prepared by mixing 9.5 mL of solution A with 40.5 mL of solution B, diluting to 500 mL with ultrapure water, and then adjusting to pH 7.4 with KOH or H3PO4, wherein the solution A (1M potassium dihydrogenphosphate) was prepared by dissolving 136.5 g of potassium dihydrogenphosphate in […] of ultrapure water.
2. Preparation of human liver microsome suspension (1.3 mg/mL, 1.3×, stock: 20 mg/mL): 100 μL of human liver microsome suspension (20 mg/mL) was added into […] of K-buffer.
3. Preparation of NADPH solution (4.167 mg/mL, 5 mM): 8.3 mg of NADPH was added into 2 mL of buffer.
4. Preparation of substrate solution (1.5× final): 1.5 μL of 10 mM Midazolam was added to 998.5 μL of K-buffer to yield the substrate mixture.
5. Preparation of 100× test compound, reference and blank control solutions: 3 μL of 10 mM stock solution of test compound was added to 27 μL of ACN; 3 μL of positive control stock solution was added to 27 μL of ACN; and 3 μL of DMSO was added to 27 μL of ACN to serve as blank control.
6. Primary preheating system: An NADPH-free system for 0 min incubation: 78 μL of 1.3× human liver microsome solution (step 2) was mixed with 1 μL of the 100× stock solutions of positive control, test compound, or blank control (step 5); A system containing NADPH for 30 min incubation: 78 μL of 1.3× human liver microsome solution (step 2) was mixed with 1 μL of the 100× stock solutions of positive control, test compound, or blank control (step 5).
7. Secondary preheating system: 150 μL of the substrate solution prepared in step 4 was added into a deep well plate together with the NADPH solution from step 3
8. The samples were preheated for 10 min in a 37° C. water bath.
9. Reaction procedure: (1) reaction for 0 min: 21 μL of K-buffer was added to the primary preheating system and mixed well without incubation; 20 μL of the mixture was immediately transferred into the plate of the secondary preheating system; after mixing, the secondary system was incubated in a 37° C. water bath for 15 min, and 60 μL of the reaction mixture was added into 120 μL of acetonitrile containing internal standard to terminate the reaction; and (2) reaction for 30 min: 21 μL of NADPH was added into the primary preheating system for a 30-min incubation after mixing; 20 μL of the mixture was added into the secondary preheating system prior to mixing; the mixture was incubated in a 37° C. water bath for 15 min, and 60 μL of the reaction mixture was added into 120 μL of acetonitrile containing internal standard to terminate the reaction.
10. After termination, the samples were shaken on a shaker at 600 rpm for 10 min and centrifuged at 5594 g for 15 min prior to LC-MS/MS analysis.

LPA18:2 in mouse plasma = test: Inhibition of LPA in mouse plasma (plasma LPA18:2 assay, LC-MS/MS); format: biochemical, CD1 mice; conditions: fresh CD1 mouse plasma, LPA18:2, 37° C. for 120 min
Protocol: Effect Example 2. Inhibition of LPA in Mouse Plasma by Compounds
20 mM stock solutions of the compounds were prepared with DMSO and then diluted to 1 mM, which was subjected to a serial 3-fold dilution to yield 10 working solutions.
Collection of Fresh Mouse Plasma:
CD1 mice were euthanized by CO2 inhalation. Approximately 1 mL of whole blood was taken by cardiac puncture, with EDTA-K2 for anticoagulation. The blood was centrifuged at 3220 g for 10 min at 4° C. for plasma collection.
Reactions were performed in a 96-well plate, and the samples were tested in duplicate. 1 μL of each working solution was added to 100 μL of plasma, with the final concentrations of […]. 1 μL of DMSO was added to plasma to serve as blank. The samples were incubated in a water bath at 37° C. for 120 min, and 600 μL of 10 μM tolbutamide in methanol was added to terminate the reaction. Tolbutamide also served as an internal standard. After 5 min of vortex mixing, the samples were centrifuged at 3220 g for 45 min at 4° C. to precipitate the protein. 100 μL of the supernatant was transferred to a new plate, diluted with water based on LC-MS response and peak shapes, mixed well and analyzed by LC-MS/MS.
LPA18:2 was quantified using peak area ratio (LPA18:2/internal standard), requiring no standard curve. For test compounds of different concentrations, LPA data was represented by a percentage decrease of LPA: 100-[((LPA peak area ratio of compound)/(LPA peak area ratio of control))×100]. IC50 was calculated using Graphpad Prism 6.0 software.

Row | SMILES | IC50 (Autotaxin (ATX)) | CYP3A4 TDI % @ 10 μM (CYP3A4) | time-dependent inhibition on CYP3A4 (conclusion) (CYP3A4) | IC50 (LPA18:2 in mouse plasma)
1 | CCc1oc2cnc(N3CCN(CC(=O)N4CC(O)C4)CC3)cc2c1N(C)c1nc(-c2ccc(F)cc2)c(C#N)s1 [Compound S-0046, 2-((2-ethyl-5-(4-(2-(3-hydroxyazetidin-1-yl)-2-oxoethyl)piperazin-1-yl)furo[2,3-c]pyridin-3-yl)(methyl)amino)-4-(4-fluorophenyl)thiazole-5-carbonitrile] | > 10000 nM | 10.38% | no time-dependent inhibition on CYP3A4 | 
2 | CCc1oc2ncc(N3CCN(CC(=O)N4CC(O)C4)CC3)cc2c1N(C)c1nc(-c2ccc(F)cc2)c(C#N)s1 [Compound S-0045, 2-((2-ethyl-5-(4-(2-(3-hydroxyazetidin-1-yl)-2-oxoethyl)piperazin-1-yl)furo[2,3-b]pyridin-3-yl)(methyl)amino)-4-(4-fluorophenyl)thiazole-5-carbonitrile] | 261 nM | 2.68% | no time-dependent inhibition on CYP3A4 | 
3 | CCn1nc2c(F)cc(N3CCN(CC(=O)N4CC(O)C4)CC3)cc2c1N(C)c1nc(-c2ccc(F)c(F)c2)c(C#N)s1 [Compound S-0027, 4-(3,4-difluorophenyl)-2-((2-ethyl-7-fluoro-5-(4-(2-(3-hydroxyazetidin-1-yl)-2-oxoethyl)piperazin-1-yl)-2H-indazol-3-yl)(methyl)amino) thiazole-5-carbonitrile] | 165 nM | 42.12% | weak time-dependent inhibition on CYP3A4 | 
4 | CCN(c1nc(-c2ccc(F)cc2)cs1)c1c2nc(N3CCN(CC(=O)N4CC(O)C4)CC3)cc(C)c2nn1CC [Compound S-0151, 2-(4-(2-ethyl-3-(ethyl(4-(4-fluorophenyl)thiazol-2-yl)amino)-7-methyl-2H-pyrazolo[4,3-b]pyridin-5-yl)piperazin-1-yl)-1-(3-hydroxyazetidin-1-yl) ethanone] |  |  |  | 1400 nM
5 | CCc1oc2c(F)cc(N3CCN(CC(=O)N4CC(O)C4)CC3)cc2c1N(C)c1nc(-c2ccc(F)cc2)c(C#N)s1 [Compound S-0024, 2-((2-ethyl-7-fluoro-5-(4-(2-(3-hydroxyazetidin-1-yl)-2-oxoethyl)piperazin-1-yl)benzofuran-3-yl)(methyl)amino)-4-(4-fluorophenyl)thiazole-5-carbonitrile] | 188 nM | 4.8% | no time-dependent inhibition on CYP3A4 | 
6 | CCc1nn2c(C)cc(N3CCN(CC(=O)N4CC(O)C4)CC3)nc2c1N(CC)c1nc(-c2ccc(F)cc2)c(C#N)s1 [Compound S-0069, 2-(ethyl(2-ethyl-5-(4-(2-(3-hydroxyazetidin-1-yl)-2-oxoethyl)piperazine-1-yl)-7-methylpyrazolo[1,5-a]pyrimidin-3-yl)amino)-4-(4-fluorophenyl) thiazole-5-carbonitrile] | 43 nM |  |  | 
7 | O=C1S/C(=C\c2ccc(OCc3cccc(B(O)O)c3)cc2)C(=O)N1Cc1ccc(F)cc1 [HA130, reference compound] | 24 nM |  |  | 
8 | CCc1nn2ccc(N3CCN(CC(=O)N4CC(O)C4)CC3)cc2c1N(C)c1nc(-c2ccc(F)cc2)c(C#N)s1 [Compound S-0040, 2-((2-ethyl-5-(4-(2-(3-hydroxyazetidin-1-yl)-2-oxoethyl)piperazin-1-yl)pyrazolo[1,5-a]pyridin-3-yl)(methyl)amino)-4-(4-fluorophenyl)thiazole-5-carbonitrile] | 767 nM |  |  | 
9 | CCN(c1nc(-c2ccc(F)c(F)c2)c(C#N)s1)c1c2cc(N3CCN(CC(=O)N4CC(O)C4)CC3)cc(F)c2nn1CC [Compound S-0123, 4-(3,4-difluorophenyl)-2-(ethyl(2-ethyl-7-fluoro-5-(4-(2-(3-hydroxyazetidin-1-yl)-2-oxoethyl)piperazin-1-yl)-2H-indazol-3-yl)amino)thiazole-5-carbonitrile] | 32 nM |  |  | 
10 | CCc1nn2c(C)cc(N3CCN(CC(=O)N4CC(O)C4)[C@@H](C)C3)nc2c1N(C)c1nc(-c2ccc(F)cc2)c(C#N)s1 [Compound S-0075, (S)-2-((2-ethyl-5-(4-(2-(3-hydroxyazetidin-1-yl)-2-oxoethyl)-3-methylpiperazin-1-yl)-7-methylpyrazolo[1,5-a]pyrimidin-3-yl)(methyl)amino)-4-(4-fluorophenyl)thiazole-5-carbonitrile] | 88 nM |  |  | 
11 | CCc1nn2c(C)cc(N3CCN(CC(=O)N4CC(O)C4)[C@H](C)C3)nc2c1N(C)c1nc(-c2ccc(F)cc2)c(C#N)s1 [Compound S-0074, (R)-2-((2-ethyl-5-(4-(2-(3-hydroxyazetidin-1-yl)-2-oxoethyl)-3-methylpiperazin-1-yl)-7-methylpyrazolo[1,5-a]pyrimidin-3-yl)(methyl)amino)-4-(4-fluorophenyl)thiazole-5-carbonitrile] | 207 nM |  |  | 
